# Laboratory results from paper PMC3483115 (The Journal of General Physiology, 2012).
# Ends that are not written are not given here. MBP = maltose-binding protein (N-terminal fusion)
# Tests used:
# [1] = test system: TRPV1 K155A; conditions: ref Lishko et al., 2007; cited from earlier work
# [2] = test system: TRPV1 K155A; format: cell-based, rat; conditions: repeated 1 µM capsaicin, whole cell, extracellular Ca^2+
# [3] = target: T1, Ca^2+–CaM (Homo sapiens, UniProt P0DP23); conditions: ref Lishko et al., 2007; cited from earlier work
# [4] = target: T1, Ca^2+–CaM; assay: CaM-agarose pulldown of MBP-fused TRPV1-CT35 peptides; format: binding; conditions: CaM-agarose pulldown (Fig. S2), pH 7.5, 1 mM CaCl2 or EGTA, 4°C, 1 h
# [5] = target: T1, Ca^2+–CaM; assay: SEC-based comparison of Ca^2+–CaM affinity, TRPV1-ARD vs. TRPV1-CT; format: binding; conditions: suggested by SEC; affinity could not be measured
# [6] = test system: CaM; assay: SEC of TRPV1-CT peptides mixed with CaM; format: binding; conditions: Superdex 75, in the presence of Ca^2+, data shown for TRPV1-CT44
# [7] = test system: TRPV1; conditions: ref Liu et al., 2005, Lishko et al., 2007, Lukacs et al.; cited from earlier work
compound,measurement,setting,value
COc1cc(CNC(=O)CCCC/C=C/C(C)C)ccc1O [capsaicin],capsaicin sensitivity of K155A TRPV1,[1],normal capsaicin sensitivity
same,"tachyphylaxis and activation kinetics, K155A TRPV1",[2],little tachyphylaxis and slower activation kinetics
K155A: TRPV1 with mutation K155A in the TRPV1-ARD,Ca^2+–CaM binding to TRPV1-ARD with mutation,[3],abolish Ca^2+–CaM binding to TRPV1-ARD
L796P ({MBP}-EGVKRTLSFSLRSGRVSGRNWKNFALVPLPRDAST),Ca^2+–CaM binding of L796P MBP-TRPV1-CT35 (pulldown),[4],did not significantly disrupt binding of TRPV1-CT35 to Ca^2+–CaM
TRPV1-ARD: N-terminal ankyrin repeat domain of TRPV1 (rat or chicken),affinity of TRPV1-ARD for Ca^2+–CaM relative to TRPV1-CT,[5],the affinity is likely significantly lower than that of the TRPV1-CT
"TRPV1-CT35: 35-residue CaM-binding peptide from the TRPV1-CT (residues 767–801) (EGVKRTLSFSLRSGRVSGRNWKNFALVPLLRDAST; left off: MBP, N-terminal, cleaved)",shift in elution volume with CaM,[6],"undergo a large shift in elution volume when mixed with CaM in the presence of Ca^2+, confirming that a complex is formed"
"phosphatidylinositol-4,5-bisphosphate [PIP2]",effect of PIP2 on TRPV1,[7],can also potentiate TRPV1
